Assay results: ChEMBL document CHEMBL1201862, “PubChem BioAssay data set” (2004)
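Protocol summary: plate cells (96-well), add compound at 5 concentrations, incubate 48 h, interpolate endpoints linearly. At the GI50, growth is halved.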 Active and inactive are the calls of the source. No stated cut-off is given here; in the data, active = GI50 up to about 1.1 µM and inactive = higher.

How the values were obtained:
Test in all cases: growth of human tumour cells (NCI), 48 h
M19-MEL = tested on: M19-MEL
ACHN = tested on: ACHN
M14 = tested on: M14
SR = tested on: SR
SF-539 = tested on: SF-539
HT-29 = tested on: HT-29
OVCAR-3 = tested on: OVCAR-3
DMS-114 = tested on: DMS-114
DMS-273 = tested on: DMS-273
CAKI-1 = tested on: CAKI-1
U-251 = tested on: U-251
KM12 = tested on: KM12
IGROV-1 = tested on: IGROV-1
RPMI-8226 = tested on: RPMI-8226
MOLT-4 = tested on: MOLT-4
SNB-78 = tested on: SNB-78
HL-60 = tested on: HL-60
UACC-257 = tested on: UACC-257
SK-MEL-28 = tested on: SK-MEL-28

Measured: GI50

CCOC(=O)C(=O)Nc1c(N(CC)CC)n2ccccc2nc1=O
inactive: M19-MEL > 100 µM | ACHN > 100 µM | M14 > 100 µM | SR > 100 µM | SF-539 > 100 µM | HT-29 > 100 µM | OVCAR-3 > 100 µM | DMS-114 > 100 µM | DMS-273 > 100 µM | CAKI-1 > 100 µM | U-251 > 100 µM | KM12 > 100 µM | IGROV-1 > 100 µM | RPMI-8226 > 100 µM | MOLT-4 > 100 µM | SNB-78 > 100 µM

O=C(Nc1ccc(Cl)cc1)/C(Cc1cccc[n+]1[O-])=N\Nc1ccc([N+](=O)[O-])cc1[N+](=O)[O-]
inactive: M19-MEL > 100 µM | ACHN > 100 µM | M14 > 100 µM | SF-539 > 100 µM | OVCAR-3 > 100 µM | DMS-114 > 100 µM | HL-60 > 100 µM | UACC-257 > 100 µM | DMS-273 > 100 µM | CAKI-1 > 100 µM | U-251 > 100 µM | KM12 > 100 µM | IGROV-1 > 100 µM | RPMI-8226 > 100 µM | SK-MEL-28 > 100 µM | MOLT-4 > 100 µM | SNB-78 > 100 µM

COC(=O)[C@]12CSCN1C(=O)C(C(C)=O)=NN2C(=O)[C@](OC)(c1ccccc1)C(F)(F)F
inactive: M19-MEL > 100 µM | ACHN > 100 µM | M14 > 100 µM | SR > 10 µM | SF-539 > 100 µM | HT-29 > 100 µM | OVCAR-3 > 100 µM | DMS-114 > 100 µM | HL-60 > 10 µM | DMS-273 > 100 µM | U-251 > 100 µM | KM12 > 100 µM | IGROV-1 > 100 µM | RPMI-8226 > 100 µM | SK-MEL-28 > 100 µM | MOLT-4 > 100 µM | SNB-78 > 100 µM

Cc1ccc(NC(=O)/C(=N/NC(=O)C[N+](C)(C)C)c2nc3ccccc3nc2O)cc1
inactive: M19-MEL > 100 µM | ACHN > 100 µM | M14 > 100 µM | SR > 100 µM | SF-539 > 100 µM | HT-29 91.4 µM | OVCAR-3 > 100 µM | DMS-114 > 100 µM | UACC-257 > 100 µM | DMS-273 > 100 µM | CAKI-1 > 100 µM | U-251 27.4 µM | IGROV-1 > 100 µM | RPMI-8226 > 100 µM | SK-MEL-28 > 100 µM | MOLT-4 > 100 µM | SNB-78 > 100 µM

On1c(-c2ccccc2)c(-c2ccccc2N2CCCC2)c2ccccc21
inactive: M19-MEL > 100 µM | ACHN > 100 µM | M14 > 100 µM | SR > 100 µM | SF-539 > 100 µM | HT-29 > 100 µM | OVCAR-3 > 100 µM | DMS-114 47.2 µM | HL-60 > 100 µM | UACC-257 > 100 µM | DMS-273 > 100 µM | CAKI-1 > 100 µM | U-251 > 100 µM | KM12 > 100 µM | IGROV-1 > 100 µM | RPMI-8226 > 100 µM | SK-MEL-28 > 100 µM | MOLT-4 > 100 µM | SNB-78 > 100 µM

CC(=O)OC(C)(C)C1CCC(C)(C(O)COc2ccc(CCNC(=O)c3ccccc3)cc2)O1 (centres undefined)
inactive: M19-MEL 37.3 µM | ACHN 54.1 µM | M14 28.6 µM | SR 47.1 µM | SF-539 60.8 µM | HT-29 > 100 µM | OVCAR-3 27.6 µM | DMS-114 12.5 µM | HL-60 15.5 µM | UACC-257 > 100 µM | DMS-273 33.3 µM | CAKI-1 > 100 µM | U-251 53.3 µM | KM12 60.8 µM | IGROV-1 > 100 µM | RPMI-8226 20.7 µM | SK-MEL-28 79.8 µM | MOLT-4 14.8 µM | SNB-78 48.3 µM

Cc1ccc(NC(=O)CC2C(=O)Nc3ccccc3S2(=O)=O)cc1C (centres undefined)
inactive: M19-MEL > 100 µM | ACHN > 100 µM | M14 > 100 µM | SR > 100 µM | SF-539 > 100 µM | HT-29 > 100 µM | OVCAR-3 > 100 µM | DMS-114 > 100 µM | HL-60 > 100 µM | UACC-257 > 100 µM | DMS-273 > 100 µM | CAKI-1 > 100 µM | U-251 > 100 µM | IGROV-1 > 100 µM | RPMI-8226 62.8 µM | SK-MEL-28 > 100 µM | MOLT-4 > 100 µM | SNB-78 > 100 µM

Cc1c(-c2nnc(-c3ccccc3)o2)c(=O)n(-c2ccccc2)n1C
inactive: M19-MEL > 100 µM | ACHN > 100 µM | M14 > 100 µM | SR > 100 µM | SF-539 > 100 µM | HT-29 > 100 µM | OVCAR-3 > 100 µM | DMS-114 > 100 µM | HL-60 > 100 µM | UACC-257 > 100 µM | DMS-273 > 100 µM | U-251 > 100 µM | KM12 > 100 µM | IGROV-1 > 100 µM | RPMI-8226 > 100 µM | SK-MEL-28 > 100 µM | MOLT-4 > 100 µM | SNB-78 > 100 µM

O=c1ccn([C@H]2CSC[C@@H](CO)C2)c(=O)[nH]1
inactive: M19-MEL > 100 µM | ACHN > 100 µM | M14 > 100 µM | SF-539 > 100 µM | HT-29 > 100 µM | OVCAR-3 > 100 µM | DMS-114 > 100 µM | HL-60 > 100 µM | UACC-257 > 100 µM | DMS-273 > 100 µM | CAKI-1 > 100 µM | U-251 > 100 µM | KM12 > 100 µM | IGROV-1 > 100 µM | RPMI-8226 > 100 µM | SK-MEL-28 > 100 µM | MOLT-4 > 100 µM | SNB-78 > 100 µM

CC(=O)NNc1nc(C)c(C(=O)/C=C/c2ccc(Cl)c(Cl)c2)s1
inactive: M19-MEL > 100 µM | ACHN > 100 µM | SF-539 > 100 µM | HT-29 > 100 µM | OVCAR-3 > 100 µM | DMS-114 > 100 µM | HL-60 > 100 µM | UACC-257 > 100 µM | DMS-273 > 100 µM | CAKI-1 > 100 µM | U-251 > 100 µM | KM12 > 100 µM | IGROV-1 > 100 µM | RPMI-8226 > 100 µM | SK-MEL-28 > 100 µM | MOLT-4 > 100 µM | SNB-78 > 100 µM

COc1ccc(OCC(=O)O)c2c1CCC(C)C2=O (centres undefined)
inactive: M19-MEL > 100 µM | ACHN > 100 µM | M14 > 100 µM | SF-539 > 100 µM | HT-29 > 100 µM | OVCAR-3 > 100 µM | DMS-114 > 100 µM | HL-60 > 100 µM | UACC-257 > 100 µM | DMS-273 > 100 µM | CAKI-1 > 100 µM | U-251 > 100 µM | KM12 > 100 µM | IGROV-1 > 100 µM | RPMI-8226 > 100 µM | SK-MEL-28 > 100 µM | MOLT-4 > 100 µM | SNB-78 > 100 µM
